Key:
[1] = Respiratory depression; details: in vivo
Procedure: The biphasic THC bioavailability, rapid oral absorption of THC, and the delayed, subsequent conversion of THC into 11-OH THC, provide both an immediate euphoric state and an extended euphoric state, 12-18 hours, that could provide a safe drug alternative to opioids. Opioids cause respiratory depression and overdose deaths from respiratory depression relative to opioid dose. This is the rationale of the second reference, and the reason that Massachusetts prioritized recreational cannabis dispensary licenses to areas of high opioid overdose deaths.

[2] = cited from earlier work
[3] = cited from earlier work; remark: listed apart in the source
[4] = Menthol/1-arginine enhanced oral mucous membrane absorption of THC and euphoric effect
Procedure: FIG. 1 of Human Cannabinoid Pharmacokinetics, by Marilyn A. Huestis, (www.pubmed.gov/17712819) published as Chem Biodivers. 2007 August: 4(8): 1770-1804. […] This is with 8 inhalations over 10 minutes, in 6 patients. […] The method entails maintaining the menthol/1-arginine/THC coated edible THC in the oral cavity for about 10 minutes before chewing the edible.

[5] = menthol/1-arginine enhanced, oral cavity

Row | Compound | respiratory depression [1] | maximum effect (plasma concentration) ([2]; 6 hours after ingestion) | area under the curve (AUC) of plasma concentration relative to THC ([2]; after ingestion of THC) | duration of plasma concentration ([2]; after ingestion of THC) | plasma concentration at peak effect relative to the peak THC plasma concentration ([2]; after ingestion of THC) | time after ingestion up to which an effect is produced ([2]; after ingestion of THC) | time of maximum effect after ingestion ([2]; after ingestion of THC) | metabolism of inhaled or smoked THC into 11-OH THC ([3]; inhaled or smoked) | rise of plasma THC ([3]; smoking 3.55% THC cannabis, 8 inhalations over 10 minutes, 6 patients, from 0 in 10 minutes) | oral mucous membrane absorption of THC relative to the efficacy of smoked/inhaled THC [4, 5] | window in which oral mucous membrane absorption occurs [4, 5] | duration of euphoric effect ([4]; orally absorbed THC, depending upon THC dosage)
1 | CCCCCc1cc(O)c2c(c1)OC(C)(C)[C@@H]1CCC(CO)=C[C@@H]21 [11-OH THC, 11-hydroxy tetrahydrocannabinol] | do not cause respiratory depression | 110 micrograms/ml | triple | over 24 hours | double | up to 15 hours | 6 h | – | – | – | – | –
2 | CCCCCc1cc(O)c2c(c1)OC(C)(C)[C@@H]1CCC(C)=C[C@@H]21 [THC, delta-9 tetrahydrocannabinol] | do not cause respiratory depression | – | – | 12 h | – | – | – | not metabolized into 11-OH THC | 150 micrograms/ml | about 70% | 10 to 15 min | 4 to 8 h
3 | Cannabis | do not cause respiratory depression | – | – | – | – | – | – | – | – | – | – | –
